In patent US20040176466A1, “Combination therapy for the treatment of neurological disorders” (priority 2001, published 2004):
“And” between values parts separate entries of the source, which are not always exact repeats. Equal values may be shown once. Read-outs that look alike come from different tables or passages of the source.

Tests used:
[1] = Steady-state pharmacokinetics of atomoxetine alone and coadministered with paroxetine in CYP2D6 extensive metabolizers; type: in vivo; details: both sexes, human, plasma, oral; for AUC: read-out: AUC0-τ; for Vd/F: read-out: Vz/F
Protocol: The study was conducted at the Lilly Laboratory for Clinical Research in Indianapolis, Ind. The protocol and informed consent documents were approved by the Institutional Review Board of Indiana University—Purdue University at Indianapolis. The study was conducted in accordance with the Declaration of Helsinki. All participants provided informed written consent before enrollment into the study. All volunteers were considered to be healthy on the basis of medical history, electrocardiographic findings, and routine clinical laboratory tests. Volunteers with clinically abnormal results were excluded from the study.
Only CYP2D6 extensive metabolizers, as determined by genotyping and phenotyping analyses, were entered in this study. CYP2D6 genotype was performed by PPGx (Morrisville, N.C.). DNA from whole blood samples were isolated and purified and analyzed for CYP2D6 genotype using a validated PCR ([…]) method. CYP2D6 genotype was evaluated by testing the *3, *4, *5, *6, *7, and *8 poor metabolizer (PM) alleles. If patients were homozygous for any combination of these alleles, a PM genotype was assigned; otherwise, an extensive metabolizer genotype (EM) was assigned. CYP2D6 phenotype was performed using the urine ratio of dextromethorphan/dextrorphan following an oral dose of dextromethorphan. Volunteers with a ratio greater than 0.3 were assigned a PM phenotype, and those with a ratio less than 0.3 were assigned an EM phenotype.
This was a single-blind, sequential study composed of two periods. […] Doses were administered with 240 mL of water.
Pharmacokinetic parameter estimates were calculated with noncompartmental analysis by using WinNonlin Professional Version 2.1 (Pharsight Corp, Mountain View, Calif.). The steady state maximum plasma concentration (Css,max), and the corresponding time of the maximum concentration (Tmax) were observed values. The elimination rate constant (λz) was determined as the slope of the linear regression for the terminal log-linear portion of the concentration-time curve. Terminal half-life (t1/2) was calculated as ln(2)/λz. The area under the plasma concentration time curve (AUC0-τ) over the dosing interval was estimated by the linear trapezoidal method. […] Apparent clearance (CLss/F) and apparent volume of distribution (Vz/F) were calculated as Dose/AUC0-τ and as (CLss/F)/λz, respectively.
Except for Tmax, all parameters were log transformed, and a mixed-effect analysis of variance was performed with subject as a random effect. […] For Tmax, a Wilcoxon sign-rank test was performed. Data from all subjects who received study drug are included in the pharmacokinetic and statistical analyses, except for the Tmax analyses that excluded subjects with measurements for only one treatment. Statistical analyses were performed with SAS Version 6.12 (SAS Institute, Cary, N.C.).

ADHD = assay: Study of atomoxetine versus placebo in the treatment of ADHD; type: in vivo, human
Source text: Inter-individual variability in drug metabolism poses a challenge in predicting dosing, safety, and efficacy of a drug. Pharmacokinetic factors, as well as substantial intersubject pharmacodynamic variability, have been proposed as a factor in cases of therapeutic failure of methylphenidate (DeVane, et al., Journal of Clinical Psychopharmacology, 20(3), 347 (2000)).

[2] = cited from earlier work

half-life ([1]; 20 mg, atomoxetine alone): 3.92 h
half-life ([1]; 20 mg, atomoxetine alone (Period 1), steady state, mean (range), n = 21): 4.03 h
Tmax ([1]; 20 mg, atomoxetine alone (Period 1), steady state, median (range), n = 21, read-out: Tmax): 1 h
AUC ([1]; 20 mg): 846 ng·h/mL
Vd/F ([1]; 20 mg): 2.2 L/kg
half-life ([1]; after concomitant paroxetine administration): 10 h
half-life ([1]; atomoxetine with paroxetine (Period 2), steady state, mean (range), n = 14): 11 h
Tmax ([1]; atomoxetine with paroxetine (Period 2), steady state, median (range), n = 14, read-out: Tmax): 1.5 h
Tmax ([1]; atomoxetine with paroxetine versus atomoxetine alone, read-out: median of the paired difference in Tmax): 0.5 h
AUC [1]: 5970 ng·h/mL
Vd/F [1]: 0.803 L/kg
Compound: CNCC[C@@H](Oc1ccccc1C)c1ccccc1 [Atomoxetine, (R)-(−)-N-methyl-3-(2-methylphenoxy)-3-phenylpropylamine]
response to atomoxetine treatment (ADHD; poor metabolizer ADHD patients): greater response
efficacy in the treatment of ADHD versus placebo (ADHD; regardless of CYP2D6 status, extensive or poor metabolizer): robustly better than placebo
mean half-life ([2]; majority of patients): 4.5 ± 1.1 h
half-life ([2]; two patients (second class of kinetic disposition)): 17.1 h and 21 h
